# pEC50: −log10 of the molar value. Starred links: 1 amine or outer side, 2 acyl side, 3 side chain; linkers in the order of their positions; H or OH if unused. Positions of bridges follow the written chain, without caps; N, C: chain ends. Residues, ends and D or L forms follow the SMILES beside them. *: point of attachment. C20 diacid = O=C(O)CCCCCCCCCCCCCCCCCCC(=O)*; γGlu = O=C(O)[C@H](CCC(=O)[*:2])N[*:1]
# Target: T1, Amylin 3(a) receptor (human calcitonin receptor (CTa) with RAMP-3) (Homo sapiens, UniProt O60896+P30988)
# T1 construct: expressed in transfected cells; host or cells: BHK570 (baby hamster kidney) cells, stably transfected, with CRE-luciferase reporter
# T1 sequence (O60896 24-148): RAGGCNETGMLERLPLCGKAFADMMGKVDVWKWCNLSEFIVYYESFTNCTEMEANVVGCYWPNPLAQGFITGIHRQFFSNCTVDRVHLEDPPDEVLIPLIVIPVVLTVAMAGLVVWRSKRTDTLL
# T1 sequence (P30988 25-474): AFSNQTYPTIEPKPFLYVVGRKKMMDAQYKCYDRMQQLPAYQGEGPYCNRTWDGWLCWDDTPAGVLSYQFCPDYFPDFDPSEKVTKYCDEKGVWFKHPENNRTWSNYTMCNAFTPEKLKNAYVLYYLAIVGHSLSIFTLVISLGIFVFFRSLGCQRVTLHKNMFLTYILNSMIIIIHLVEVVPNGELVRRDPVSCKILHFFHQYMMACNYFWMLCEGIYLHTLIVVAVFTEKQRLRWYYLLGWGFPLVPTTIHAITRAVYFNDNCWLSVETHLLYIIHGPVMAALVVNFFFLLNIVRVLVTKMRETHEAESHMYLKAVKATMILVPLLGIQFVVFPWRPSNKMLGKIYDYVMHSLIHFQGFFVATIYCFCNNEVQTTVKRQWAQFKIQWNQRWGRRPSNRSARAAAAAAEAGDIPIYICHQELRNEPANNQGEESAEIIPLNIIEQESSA
# Assay: Amylin luciferase assay (CRE-luciferase reporter in BHK Amylin 3(a)//CRE-luc cells)
# Format: cell-based
# Details: BHK570 cells with human calcitonin receptor (CTa), RAMP-3 and CRE-luciferase reporter; 4 hours incubation; read-out: Potency luciferase assay
# Method in brief: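 BHK570 cells stably expressing human calcitonin receptor (CTa), RAMP-3 and a CRE-luciferase reporter, about 20.000 cells/well, were exposed to standard or sample for 4 h at 37° C in phenol-red-free DMEM with 10% FBS and 10 mM Hepes pH 7,4. Luminescence was read after 30 min with LucLite at room temperature.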
row,pEC50,SMILES
1,10.00,"CC[C@H](C)[C@H](NC(=O)[C@@H]1CCCN1C(=O)CNC(=O)[C@H](Cc1ccccc1)NC(=O)[C@H](CC(N)=O)NC(=O)[C@H](CC(N)=O)NC(=O)[C@H](CO)NC(=O)[C@H](CO)NC(=O)[C@H](Cc1c[nH]cn1)NC(=O)[C@@H](NC(=O)[C@H](CC(C)C)NC(=O)[C@H](Cc1ccccc1)NC(=O)[C@H](CC(N)=O)NC(=O)[C@H](C)NC(=O)[C@H](CC(C)C)NC(=O)[C@H](CCCNC(=N)N)NC(=O)[C@H](CCC(N)=O)NC(=O)[C@@H](NC(=O)[C@H](C)NC(=O)[C@@H]1CSSC[C@H](NC(=O)CC[C@H](NC(=O)CCCCCCCCCCCCCCCCCCC(=O)O)C(=O)O)C(=O)N[C@@H](CC(N)=O)C(=O)N[C@@H]([C@@H](C)O)C(=O)N[C@@H](C)C(=O)N[C@@H]([C@@H](C)O)C(=O)N1)[C@@H](C)O)C(C)C)C(=O)N[C@@H](CC(C)C)C(=O)N1CCC[C@H]1C(=O)N1CCC[C@H]1C(=O)N[C@H](C(=O)N[C@@H](CC(N)=O)C(=O)N[C@H](C(=O)NCC(=O)N[C@@H](CO)C(=O)N[C@@H](CC(N)=O)C(=O)N[C@H](C(=O)N[C@@H](Cc1ccc(O)cc1)C(N)=O)[C@@H](C)O)C(C)C)[C@@H](C)O [Example 43, N-alpha-[(S)-4-carboxy-4-(19-carboxynonadecanoylamino)butyryl]-pramlintide (2-37)] ({C20 diacid-γGlu}-CNTATCATQRLANFLVHSSNNFGPILPPTNVGSNTY-NH2; disulfide 1-6; C-terminus assumed)"
2,10.40,"CC[C@H](C)[C@H](NC(=O)[C@@H]1CCCN1C(=O)CNC(=O)[C@H](Cc1ccccc1)NC(=O)[C@H](CC(N)=O)NC(=O)[C@H](CC(N)=O)NC(=O)[C@H](CO)NC(=O)[C@H](CO)NC(=O)[C@H](Cc1c[nH]cn1)NC(=O)[C@@H](NC(=O)[C@H](CC(C)C)NC(=O)[C@H](Cc1ccccc1)NC(=O)[C@H](CC(N)=O)NC(=O)[C@H](C)NC(=O)[C@H](CC(C)C)NC(=O)[C@H](CCCNC(=N)N)NC(=O)[C@H](CCC(N)=O)NC(=O)[C@@H](NC(=O)[C@H](C)NC(=O)[C@@H]1CSSC[C@H](NC(=O)[C@H](CCCNC(=N)N)NC(=O)CC[C@H](NC(=O)CCCCCCCCCCCCCCCCCCC(=O)O)C(=O)O)C(=O)N[C@@H](CC(N)=O)C(=O)N[C@@H]([C@@H](C)O)C(=O)N[C@@H](C)C(=O)N[C@@H]([C@@H](C)O)C(=O)N1)[C@@H](C)O)C(C)C)C(=O)N[C@@H](CC(C)C)C(=O)N1CCC[C@H]1C(=O)N1CCC[C@H]1C(=O)N[C@H](C(=O)N[C@@H](CC(N)=O)C(=O)N[C@H](C(=O)NCC(=O)N[C@@H](CO)C(=O)N[C@@H](CC(N)=O)C(=O)N[C@H](C(=O)N[C@@H](Cc1ccc(O)cc1)C(N)=O)[C@@H](C)O)C(C)C)[C@@H](C)O [Example 45, N-alpha-[(S)-4-carboxy-4-(19-carboxynonadecanoylamino)butyryl]-[Arg1]-pramlintide (1-37)] ({C20 diacid-γGlu}-RCNTATCATQRLANFLVHSSNNFGPILPPTNVGSNTY-NH2; disulfide 2-7; C-terminus assumed)"

# Reference: patent US20100222269A1, “IMPROVED DERIVATIVES OF AMYLIN” (priority 2007, published 2010)
